Data: patent US20220017572A1, “GEMINOID LIPOPEPTIDE COMPOUNDS AND THEIR USES” (Erasmus University Medical Center Rotterdam, priority 2016, published 2022)
Residues, ends and D or L forms follow the SMILES beside them.

Columns and labels:
[1] = molecular target: human furin (Homo sapiens, UniProt P09958); assay: Human furin inhibition, hydrolysis of Ac-RVRR-MCA; type: biochemical; conditions: 36.5° C.; for activity at 20 µM: 20 μM inhibitor; for activity at 5 µM: 5 μM inhibitor; for activity at 10 µM: 10 μM inhibitor; for activity at 15 µM: 15 μM inhibitor; for activity at 40 µM: 40 μM inhibitor
Chain of human furin (P09958 108-794): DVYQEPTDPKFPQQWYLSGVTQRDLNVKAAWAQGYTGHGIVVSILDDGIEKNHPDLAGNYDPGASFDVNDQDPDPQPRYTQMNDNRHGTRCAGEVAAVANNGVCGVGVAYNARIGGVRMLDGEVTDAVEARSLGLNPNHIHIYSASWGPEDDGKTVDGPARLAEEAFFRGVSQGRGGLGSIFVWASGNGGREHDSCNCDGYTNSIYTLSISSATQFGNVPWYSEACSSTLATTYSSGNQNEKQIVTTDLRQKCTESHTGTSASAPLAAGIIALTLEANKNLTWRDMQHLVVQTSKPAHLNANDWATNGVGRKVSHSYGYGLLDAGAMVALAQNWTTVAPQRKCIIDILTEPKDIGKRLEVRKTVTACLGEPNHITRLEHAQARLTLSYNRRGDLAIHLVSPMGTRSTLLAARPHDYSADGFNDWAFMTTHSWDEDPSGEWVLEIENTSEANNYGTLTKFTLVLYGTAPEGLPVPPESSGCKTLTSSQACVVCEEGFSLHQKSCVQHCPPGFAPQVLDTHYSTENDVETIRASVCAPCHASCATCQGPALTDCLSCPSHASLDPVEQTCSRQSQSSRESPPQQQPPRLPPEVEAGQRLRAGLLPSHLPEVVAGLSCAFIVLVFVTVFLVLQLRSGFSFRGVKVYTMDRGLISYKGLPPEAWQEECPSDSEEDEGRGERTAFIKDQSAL
Protocol: (§1) The enzyme was dissolved in 1 mL MES buffer (10 mM), 1 mM CaCl2, pH 7.0 at 36.5° C. Substrate was added in a concentration 10 times the Km, and the inhibitor compounds of type C (C16-KGnK-C16, C16-KAnK-C16, and C16-RAnR-C16) were added in increasing concentrations (1.0, 5.0, 10.0, 20.0, 40.0 μL) from a stock solution of 2 mg in 1 mL DMSO. The residual activity was measured in a Hitachi F2500 spectrofluorimeter, and plots were fitted using the Grafit® software (Erithracus Software, Horley, Surrey, UK). All the assays were calculated by the Morrison equation for competitive inhibition (eq. 1, [Morrison, 1969]). The amount of substrate used for the tight binding titration experiments follow all the requirements, where [S]<<Km for all enzymes, so the Kiapp=Ki.
However, for furin we used a correction of Ki app, where [S]˜Km (eq. 2).
Range of Proteases Inhibited by Geminoids, Determination of Ki with Z-RR-MCA (Dengue 2 Protease) and Ac-RVRR-MCA (Furin) (SEQ ID NO:60).

[2] = molecular target: T1, dengue 2 protease (Dengue virus type 2, UniProt P14340); assay: Dengue 2 protease inhibition in presence of Triton X-100 (detergent test, Nature Protocol); type: biochemical, dengue 2 virus; conditions: 30 μM of inhibitor, 0.05% Triton X-100; for Activity with 0.05% Triton: initial activity in UAF/min
T1 construct: The active site of the dengue protease is in the N-terminal part of NS3
T1 sequence (P14340 1476-1653): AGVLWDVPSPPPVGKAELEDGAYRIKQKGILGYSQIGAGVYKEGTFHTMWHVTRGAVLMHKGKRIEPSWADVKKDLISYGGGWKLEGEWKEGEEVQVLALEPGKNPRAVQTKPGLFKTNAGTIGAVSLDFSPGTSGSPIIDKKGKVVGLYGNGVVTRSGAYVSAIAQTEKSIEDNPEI
Excerpt: A further investigation of the interactions of the geminoid inhibitors with biological membranes and with membrane-bound proteases is needed. […] The preparation and tests of peptides symmetrically, asymmetrically and singly alkylated with saturated, short (C6), and unsaturated (C18:1) alkyl tails are in progress.

[3] = molecular target: T1, dengue 2 protease; assay: Dengue 2 protease inhibition, hydrolysis of Z-RR-MCA; type: biochemical, dengue 2 virus; conditions: for activity at 20 µM: 20 μM inhibitor; for activity at 5 µM: 5 μM inhibitor; for activity at 10 µM: 10 μM inhibitor; for activity at 15 µM: 15 μM inhibitor; for activity at 40 µM: 40 μM inhibitor
[4] = molecular target: T1, dengue 2 protease; assay: as above; type: biochemical, dengue 2 virus; design: unit not given here; conditions: 30 μM of inhibitor; 10 μM Z-RR-MCA, pH 9.0, 37° C.; initial activity in UAF/min
[5] = molecular target: plasmin (Homo sapiens, UniProt P00747); assay: Plasmin inhibition, fluorimetric enzyme assay; type: biochemical; conditions: 36.5° C., read-out: Residual Activity (%) Plasmin
Chain of plasmin (P00747 581-810 limits assumed, species assumed): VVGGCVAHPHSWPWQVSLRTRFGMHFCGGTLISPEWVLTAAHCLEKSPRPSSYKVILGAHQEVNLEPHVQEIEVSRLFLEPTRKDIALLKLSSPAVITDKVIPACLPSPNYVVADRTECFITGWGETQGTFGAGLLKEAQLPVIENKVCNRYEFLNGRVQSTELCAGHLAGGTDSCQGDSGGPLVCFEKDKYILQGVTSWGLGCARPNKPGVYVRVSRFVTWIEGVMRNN
Chain of plasmin (P00747 97-580 partner limits assumed, species assumed): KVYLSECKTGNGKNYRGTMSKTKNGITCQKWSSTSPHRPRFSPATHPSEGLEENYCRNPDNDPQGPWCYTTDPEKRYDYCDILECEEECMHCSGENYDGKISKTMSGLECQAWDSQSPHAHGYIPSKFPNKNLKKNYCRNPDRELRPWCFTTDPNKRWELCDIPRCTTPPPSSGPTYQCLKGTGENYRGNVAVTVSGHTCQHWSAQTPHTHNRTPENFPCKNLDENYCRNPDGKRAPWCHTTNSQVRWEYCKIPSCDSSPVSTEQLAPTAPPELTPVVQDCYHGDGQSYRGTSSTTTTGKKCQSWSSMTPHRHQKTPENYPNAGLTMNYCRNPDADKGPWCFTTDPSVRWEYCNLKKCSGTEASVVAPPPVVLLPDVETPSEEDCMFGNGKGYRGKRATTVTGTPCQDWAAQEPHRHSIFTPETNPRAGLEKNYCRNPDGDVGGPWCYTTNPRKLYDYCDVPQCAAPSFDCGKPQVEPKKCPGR
Protocol: as §1
(§2) The first group of gemini-like peptide amphiphiles to be screened was that of C16-K(G or A)nK-C16 (compound type C, with R1=n-C15H31, R2=n-C16H33). […] The results of the Ki determination for trypsin, dengue 2 protease, and human furin are given in Table 1A; some general data for the inhibition by this type of compounds are given in Table 1B. For most compounds in Table 1 the Ki could be derived from competitive inhibition experiments. Judging from the Ki values with the relatively simple substrate Z-RR-MCA, the best inhibitors for dengue 2 protease contain alanine (A) rather than glycine (G).

[6] = molecular target: T2, trypsin (Bos taurus, UniProt P00760); assay: Trypsin inhibition, fluorimetric enzyme assay; type: biochemical; conditions: for remaining activity at 55 µM: 55 μM inhibitor; for remaining activity at 85 µM: 85 μM inhibitor; for remaining activity at 18 µM: 18 μM inhibitor
T2 construct: gene PRSS1
T2 sequence (P00760 24-246): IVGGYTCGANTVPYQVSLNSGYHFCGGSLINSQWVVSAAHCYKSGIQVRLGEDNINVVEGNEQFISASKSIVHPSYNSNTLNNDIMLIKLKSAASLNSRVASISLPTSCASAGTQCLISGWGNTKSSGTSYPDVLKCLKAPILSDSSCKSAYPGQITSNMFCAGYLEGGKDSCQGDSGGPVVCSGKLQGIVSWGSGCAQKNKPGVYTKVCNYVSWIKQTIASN
Protocol: as §1, §2

[7] = molecular target: thrombin (Homo sapiens, UniProt P00734); assay: Thrombin inhibition, fluorimetric enzyme assay; type: biochemical; conditions: 36.5° C., read-out: Residual Activity (%) Thrombin; for remaining activity at 55 µM: 55 μM inhibitor; for remaining activity at 85 µM: 85 μM inhibitor; for remaining activity at 18 µM: 18 μM inhibitor
Protocol: as §1, with “Kiapp=Ki. […]” for “Kiapp=Ki.”

[8] = 36.5° C., read-out: Residual Activity (%) Trypsin

SMILES	activity at 20 µM [1] [%]	% recovery in presence of Triton [2] [%]	Activity with 0.05% Triton [2]	Ki [3] [µM]	activity at 20 µM ([3]; 36.5° C.) [%]	Activity with inhibitors [4]	Ki [6] [µM]	remaining activity at 55 µM [6, 8] [%]	remaining activity at 85 µM [6, 8] [%]	remaining activity at 55 µM [7] [%]	remaining activity at 85 µM [7] [%]	activity at 5 µM [1] [%]	activity at 10 µM [1] [%]	activity at 15 µM [1] [%]	activity at 40 µM [1] [%]	activity at 5 µM ([3]; 36.5° C.) [%]	activity at 10 µM ([3]; 36.5° C.) [%]	activity at 15 µM ([3]; 36.5° C.) [%]	activity at 40 µM ([3]; 36.5° C.) [%]	remaining activity at 18 µM [6, 8] [%]	other results
CCCCCCCCCCCCCCCCNC(=O)[C@H](CCCCN)NC(=O)[C@H](CCCCN)NC(=O)CCCCCCCCCCCCCCC [C16-KK-C16, C15H31CO-KK-NH—C16H33]	10	52	113	5.37	58	48	84.7	58	43	48	37	–	–	–	–	–	–	–	–	–	activity at 50 µM ([1]; 50 μM inhibitor): 5%; activity at 100 µM ([1]; 100 μM inhibitor): 0%; activity at 50 µM ([3]; 50 μM inhibitor, 36.5° C.): 37%; activity at 100 µM ([3]; 100 μM inhibitor, 36.5° C.): 7%; remaining activity at 15 µM ([5]; 15 μM inhibitor): 39%; remaining activity at 55 µM ([5]; 55 μM inhibitor): 11%; remaining activity at 85 µM ([5]; 85 μM inhibitor): 4%; remaining activity at 15 µM ([6]; 15 μM inhibitor, 36.5° C., read-out: Residual Activity (%) Trypsin): 82%; remaining activity at 15 µM ([7]; 15 μM inhibitor): 62%
CCCCCCCCCCCCCCCCNC(=O)[C@H](CCCCN)NC(=O)CNC(=O)CNC(=O)CNC(=O)[C@H](CCCCN)NC(=O)CCCCCCCCCCCCCCC [C16-KGGGK-C16, C15H31CO-KGGGK-NH—C16H33] (HELM PEPTIDE1{[CCCCCCCCCCCCCCCC(=O)[*:2]].K.G.G.G.K.[CCCCCCCCCCCCCCCCN[*:1]]}$$$$V2.0)	20	75	154	2.5	65	40	11.1	56	38	64	45	68	35	29	0	86	80	74	51	84	remaining activity at 18 µM [7]: 81%
CCCCCCCCCCCCCCCCNC(=O)[C@H](CCCCN)NC(=O)CNC(=O)CNC(=O)CNC(=O)CNC(=O)[C@H](CCCCN)NC(=O)CCCCCCCCCCCCCCC [C16KG4KC16] (HELM PEPTIDE1{[CCCCCCCCCCCCCCCC(=O)[*:2]].K.G.G.G.G.K.[CCCCCCCCCCCCCCCCN[*:1]]}$$$$V2.0)	23	63	125	1.37	60	0	–	67	53	59	41	82	64	54	0	86	78	70	45	81	remaining activity at 18 µM [7]: 88%
